Reference: ChEMBL document CHEMBL1201862, “PubChem BioAssay data set” (2004)
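Test compounds were applied to cells in 96-well plates for 48 hours at 5 doses. The concentration for 50% growth inhibition is given as GI50.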 The source made the active and inactive calls. Rule as the data show it: active = GI50 up to about 1.1 µM and inactive = higher.

Experiments:
Assay in all cases: growth of human tumour cells (NCI), 48 h
[1] = tested on: NCI-H23
[2] = tested on: NCI-H522
[3] = tested on: K562
[4] = tested on: SR
[5] = tested on: HCT-116
[6] = tested on: OVCAR-3
[7] = tested on: SN12C
[8] = tested on: CCRF-CEM
[9] = tested on: ACHN
[10] = tested on: IGROV-1
[11] = tested on: UO-31
[12] = tested on: CAKI-1
[13] = tested on: SF-268
[14] = tested on: RPMI-8226
[15] = tested on: A498
[16] = tested on: SK-MEL-28

SMILES | GI50 [1] | GI50 [2] | GI50 [3] | GI50 [4] | GI50 [5] | GI50 [6] | GI50 [7] | GI50 [8] | GI50 [9] | GI50 [10] | GI50 [11] | GI50 [12] | GI50 [13] | GI50 [14] | GI50 [15] | GI50 [16]
O=C(CO[N+](=O)[O-])OC/C=C/c1ccccc1 | > 100 µM (inactive) | > 100 µM (inactive) | > 100 µM (inactive) | > 100 µM (inactive) | > 100 µM (inactive) | > 100 µM (inactive) | > 100 µM (inactive) | > 100 µM (inactive) | > 100 µM (inactive) | > 100 µM (inactive) | > 100 µM (inactive) | > 100 µM (inactive) | > 100 µM (inactive) | > 100 µM (inactive) | – | –
CC1CC[C@@]23CCC4(C)[C@@](C=CC5[C@@]6(C)CCC(=O)C(C)(C)C6CC[C@]54C)(OC2=O)[C@@H]3[C@H]1C (some centres not stated) | 11.9 µM (inactive) | 11 µM (inactive) | 6.3 µM (inactive) | 6.08 µM (inactive) | 6.68 µM (inactive) | 11.9 µM (inactive) | 20.2 µM (inactive) | 5.35 µM (inactive) | 12 µM (inactive) | 21.1 µM (inactive) | 8.02 µM (inactive) | 21.5 µM (inactive) | 50.4 µM (inactive) | – | 20.6 µM (inactive) | 20.4 µM (inactive)
CC1(C)CCOC(Sc2ccccc2)C1 (configuration not stated) | 10.8 µM (inactive) | 18.8 µM (inactive) | 21.9 µM (inactive) | 39.6 µM (inactive) | 60.4 µM (inactive) | 87.1 µM (inactive) | > 100 µM (inactive) | 32.4 µM (inactive) | 63.7 µM (inactive) | > 100 µM (inactive) | 80.9 µM (inactive) | 96.8 µM (inactive) | > 100 µM (inactive) | 18.3 µM (inactive) | 67.3 µM (inactive) | > 100 µM (inactive)
COC(=O)CC1C[C@H](C#N)N(C(=O)c2ccccc2)C[C@@H]1CC[N+](=O)[O-] (some centres not stated) | > 100 µM (inactive) | – | > 100 µM (inactive) | > 100 µM (inactive) | > 100 µM (inactive) | > 100 µM (inactive) | > 100 µM (inactive) | > 100 µM (inactive) | > 100 µM (inactive) | > 100 µM (inactive) | > 100 µM (inactive) | – | > 100 µM (inactive) | > 100 µM (inactive) | > 100 µM (inactive) | > 100 µM (inactive)
O=C(c1ccc(Cl)cc1Cl)C1[C@H]2C(=O)N(c3ccc(Cc4ccc(N5C(=O)[C@@H]6ON(c7ccccc7)C(C(=O)c7ccc(Cl)cc7Cl)[C@@H]6C5=O)cc4)cc3)C(=O)[C@H]2ON1c1ccccc1 (some centres not stated) | > 50 µM (inactive) | > 50 µM (inactive) | > 50 µM (inactive) | > 50 µM (inactive) | > 50 µM (inactive) | > 50 µM (inactive) | > 50 µM (inactive) | > 50 µM (inactive) | > 50 µM (inactive) | > 50 µM (inactive) | > 50 µM (inactive) | > 50 µM (inactive) | > 50 µM (inactive) | > 50 µM (inactive) | > 50 µM (inactive) | > 50 µM (inactive)
Cn1c(=O)nc2n(-c3cccc(F)c3)c3ccccc3nc-2c1=O | 12.1 µM (inactive) | 16.6 µM (inactive) | 19.6 µM (inactive) | – | 23.6 µM (inactive) | 3.57 µM (inactive) | 23.6 µM (inactive) | 19.4 µM (inactive) | 8 µM (inactive) | 26.8 µM (inactive) | 52 µM (inactive) | 27.2 µM (inactive) | 43.3 µM (inactive) | 20.5 µM (inactive) | 39.9 µM (inactive) | –
COc1cccc(/C=C/c2cc(OC)c(OC)c(OC)c2)c1 | 30.3 µM (inactive) | > 100 µM (inactive) | 33.3 µM (inactive) | 35.1 µM (inactive) | 33 µM (inactive) | 26.8 µM (inactive) | 52.2 µM (inactive) | 33.7 µM (inactive) | 87.5 µM (inactive) | 47.2 µM (inactive) | 21.2 µM (inactive) | – | 68.9 µM (inactive) | 34 µM (inactive) | 57 µM (inactive) | 38.5 µM (inactive)
CC(/C(=N\Nc1ccccc1)c1ccc(O)cc1)C1C(=O)Oc2ccccc21 (configuration not stated) | – | – | > 100 µM (inactive) | > 100 µM (inactive) | > 100 µM (inactive) | > 100 µM (inactive) | > 100 µM (inactive) | > 100 µM (inactive) | > 100 µM (inactive) | > 100 µM (inactive) | > 100 µM (inactive) | > 100 µM (inactive) | – | > 100 µM (inactive) | > 100 µM (inactive) | –
CC(=O)NC(C=O)C(O[C@H](C)C(=O)NC(C)C(=O)NC(CCC(N)=O)C(=O)OCc1ccccc1)C(O)C(O)COC(=O)CCNc1c2ccccc2nc2cccc([N+](=O)[O-])c12 (some centres not stated) | 2.47 µM (inactive) | 1.62 µM (inactive) | 2.51 µM (inactive) | 0.637 µM (active) | 1.37 µM (inactive) | 1.85 µM (inactive) | 2.02 µM (inactive) | 1.94 µM (inactive) | 2.94 µM (inactive) | > 100 µM (inactive) | 16.9 µM (inactive) | 1.45 µM (inactive) | 1.79 µM (inactive) | 1.63 µM (inactive) | > 100 µM (inactive) | 3.19 µM (inactive)
CC1C=C(CCCCCCCCCCCC[C@@H](O)[C@@H]2CC[C@@H]([C@@H]3CC[C@@H](C(O)CCCCCCCCCCCCC4=C[C@H](C)OC4=O)O3)O2)C(=O)O1 (some centres not stated) | < 0.0422 µM (active) | 1.28 µM (inactive) | 0.993 µM (active) | – | – | 23 µM (inactive) | > 100 µM (inactive) | 5.36 µM (inactive) | > 100 µM (inactive) | > 71.1 µM (inactive) | 6.67 µM (inactive) | > 100 µM (inactive) | > 47.5 µM (inactive) | 0.518 µM (active) | 75.7 µM (inactive) | > 100 µM (inactive)
COc1ccc(C2c3cc(OC)c(OC)cc3C(Cc3ccc([N+](=O)[O-])cc3)C2c2ccc([N+](=O)[O-])cc2)cc1OC (configuration not stated) | > 100 µM (inactive) | 51.3 µM (inactive) | > 100 µM (inactive) | – | 14 µM (inactive) | > 100 µM (inactive) | > 100 µM (inactive) | > 100 µM (inactive) | > 100 µM (inactive) | > 100 µM (inactive) | 59.6 µM (inactive) | > 100 µM (inactive) | > 100 µM (inactive) | > 100 µM (inactive) | > 100 µM (inactive) | > 100 µM (inactive)
CC(=O)OCC1OC(N2C(=O)[C@@H](Oc3ccccc3)[C@H]2/C=C/c2ccccc2)C(OC(C)=O)C(OC(C)=O)C1OC(C)=O (some centres not stated) | > 100 µM (inactive) | > 100 µM (inactive) | > 100 µM (inactive) | > 100 µM (inactive) | > 100 µM (inactive) | > 100 µM (inactive) | > 100 µM (inactive) | > 100 µM (inactive) | > 100 µM (inactive) | > 100 µM (inactive) | > 100 µM (inactive) | – | 72.4 µM (inactive) | > 100 µM (inactive) | 72.4 µM (inactive) | > 100 µM (inactive)
COCC(O)Cn1ccnc1[N+](=O)[O-] (configuration not stated) [MISONIDAZOLE] | > 100 µM (inactive) | > 100 µM (inactive) | > 100 µM (inactive) | > 100 µM (inactive) | > 100 µM (inactive) | > 100 µM (inactive) | > 100 µM (inactive) | > 100 µM (inactive) | > 100 µM (inactive) | – | > 100 µM (inactive) | > 100 µM (inactive) | > 100 µM (inactive) | > 100 µM (inactive) | – | > 100 µM (inactive)
O=C(O)CSc1nnc(COc2ccccc2)n1-c1ccccc1 | > 100 µM (inactive) | > 100 µM (inactive) | – | > 100 µM (inactive) | > 100 µM (inactive) | > 100 µM (inactive) | > 100 µM (inactive) | > 100 µM (inactive) | > 100 µM (inactive) | > 100 µM (inactive) | > 100 µM (inactive) | – | > 100 µM (inactive) | > 100 µM (inactive) | > 100 µM (inactive) | > 100 µM (inactive)
CN(C)/C=N/c1nc2ncn(CCOC(=O)c3ccccc3)c2c(=O)[nH]1 | – | > 100 µM (inactive) | > 100 µM (inactive) | > 100 µM (inactive) | > 100 µM (inactive) | > 100 µM (inactive) | > 100 µM (inactive) | > 100 µM (inactive) | > 100 µM (inactive) | > 100 µM (inactive) | > 100 µM (inactive) | > 100 µM (inactive) | > 100 µM (inactive) | > 100 µM (inactive) | > 100 µM (inactive) | > 100 µM (inactive)
COc1ccc2[nH]c3c(c2c1)[C@H](c1ccccc1)C[C@@H]1C(=O)N(c2ccccc2)C(=O)[C@H]31 | – | 31.3 µM (inactive) | 47.9 µM (inactive) | 31.6 µM (inactive) | 4.95 µM (inactive) | 23.8 µM (inactive) | 12.1 µM (inactive) | 30.9 µM (inactive) | 22.1 µM (inactive) | 26.9 µM (inactive) | 22.9 µM (inactive) | 25.6 µM (inactive) | > 100 µM (inactive) | – | 21.4 µM (inactive) | > 100 µM (inactive)
COC(CN1C(=O)c2cccc3cccc(c23)C1=O)OC | > 100 µM (inactive) | – | 68.5 µM (inactive) | 40.5 µM (inactive) | 46.2 µM (inactive) | > 100 µM (inactive) | 41.1 µM (inactive) | 73.3 µM (inactive) | 41.5 µM (inactive) | > 100 µM (inactive) | 37.1 µM (inactive) | – | > 100 µM (inactive) | 52.6 µM (inactive) | 82.8 µM (inactive) | > 100 µM (inactive)
CN1Cc2c(nc(-c3ccc(Br)cc3)c[n+]2[O-])N(C)C1 | > 100 µM (inactive) | > 100 µM (inactive) | > 100 µM (inactive) | > 100 µM (inactive) | > 100 µM (inactive) | > 100 µM (inactive) | > 100 µM (inactive) | > 100 µM (inactive) | > 100 µM (inactive) | > 100 µM (inactive) | > 100 µM (inactive) | > 100 µM (inactive) | > 100 µM (inactive) | – | > 100 µM (inactive) | > 100 µM (inactive)
